Data on 32 compounds can be found in patent US20240025891A1 (Celgene Corporation, priority 2020, published 2024).

This experiment relates to Onchocerca gutturosa adult male worms. The experiment is described as follows: Onchocerciasis in vitro screening model Onchocerca gutturosa (worm motility score and MTT/formazan colorimetry). The settings on record: Onchocerca gutturosa, read-out: O. gutt Act class.

With `CN(C)C(=O)C1CCCN(c2ccc(Nc3nc(-c4ccccn4)cs3)nc2)C1` (centres unmarked) [Example 158, N,N-dimethyl-1-(6-(4-(pyridin-2-yl)thiazol-2-ylamino)pyridin-3-yl)piperidine-3-carboxamide], the IC50 is < 200 nM.

For `FC(F)(F)c1ccc(Nc2nc(-c3ccccn3)cs2)nc1` [Example 217, 4-(pyridin-2-yl)-N-(5-(trifluoromethyl)pyridin-2-yl)thiazol-2-amine], the IC50 was 500 to 5000 nM.

Turning to `Cc1ccnc(Nc2nc(-c3ccccn3)c(CN3CCC3)s2)c1` [Example 183, 5-(azetidin-1-ylmethyl)-N-(4-methylpyridin-2-yl)-4-(pyridin-2-yl)thiazol-2-amine], the IC50 was < 200 nM.

As to `c1ccc(-c2csc(Nc3cc(C4CC4)ccn3)n2)nc1` [Example 176, N-(4-cyclopropyl-pyridin-2-yl)-4-(pyridin-2-yl)thiazol-2-amine], the IC50 was < 200 nM.

Turning to `O=C(NC1CC1)c1ccnc(Nc2nc(-c3ccccn3)cs2)c1` [Example 170, N-cyclopropyl-2-(4-(pyridin-2-yl)thiazol-2-ylamino) isonicotinamide], the IC50 is < 200 nM.

Regarding `CC(=O)N(C)c1cc(C(F)(F)F)cnc1Nc1nc(-c2cc3c(cn2)N(C)CC3)cs1` [Example 76, N-methyl-N-(2-(4-(1-methyl-2,3-dihydro-1H-pyrrolo[2,3-c]pyridin-5-yl)thiazol-2-ylamino)-5-(trifluoromethyl)pyridin-3-yl)acetamide], the IC50 is < 200 nM.

Regarding `Cc1ccnc(Nc2nc(-c3cc(OC4CN(C)C4)ccn3)cs2)c1` [Example 98, 4-(4-(1-methylazetidin-3-yloxy)pyridin-2-yl)-N-(4-methylpyridin-2-yl)thiazol-2-amine], the IC50 is < 200 nM.

Turning to `O=C(NC1CCC(C(F)(F)F)CC1)c1ccnc(Nc2nc(-c3ccccn3)cs2)c1` (centres unmarked) [Example 150, 2-(4-(pyridin-2-yl)thiazol-2-ylamino)-N-(4-(trifluoromethyl)cyclohexyl) isonicotinamide], the IC50 was < 200 nM.

Consider `FC(F)(F)c1ccnc(Nc2nc(-c3ccccn3)cs2)c1` [Example 120, 4-(pyridin-2-yl)-N-(4-(trifluoromethyl)pyridin-2-yl)thiazol-2-amine], for which the IC50 was < 200 nM.

As to `c1ccc(-c2ccnc(Nc3cc(-c4ccccn4)ns3)c2)cc1` [Example 119, N-(4-phenylpyridin-2-yl)-3-(pyridin-2-yl)isothiazol-5-amine], the IC50 was in the range of 500 to 5000 nM.

Regarding `c1ccc(Nc2nc(-c3ccccn3)cs2)nc1` [Example 214, N,4-di(pyridin-2-yl)thiazol-2-amine], the IC50 is 200 to 500 nM.

With `Cc1ccnc(-c2csc(Nc3ncccc3-c3ccccc3)n2)c1` [Example 99, 4-(4-methylpyridin-2-yl)-N-(3-phenylpyridin-2-yl)thiazol-2-amine], the IC50 fell in the range of 500 to 5000 nM.

For the compound `Fc1ccc(-c2csc(Nc3cc(C(F)(F)F)c(Br)cn3)n2)nc1` [Example 109, N-(5-bromo-4-(trifluoromethyl)pyridin-2-yl)-4-(5-fluoropyridin-2-yl)thiazol-2-amine], the IC50 is 200 to 500 nM.

On to `CCOc1ccc(-c2csc(Nc3ccc(Cl)cn3)n2)nc1` [Example 85, N-(5-chloropyridin-2-yl)-4-(5-ethoxypyridin-2-yl)thiazol-2-amine], for which the IC50 lay in the range of 200 to 500 nM.

Regarding `Cc1ccc(-c2csc(Nc3cc(C)ccn3)n2)nc1` [Example 1, N-(4-Methylpyridin-2-yl)-4-(5-methylpyridin-2-yl)thiazol-2-amine], the IC50 was < 200 nM.

With `O=C(O)C1CCCN(c2ccc(Nc3nc(-c4ccccn4)cs3)nc2)C1` (centres unmarked) [Example 157, 1-(6-(4-(pyridin-2-yl)thiazol-2-ylamino)pyridin-3-yl)piperidine-3-carboxylic acid], the IC50 fell in the range of 500 to 5000 nM.

Regarding `c1ccc(-c2csc(Nc3cc4ccccc4cn3)n2)nc1` [Example 128, N-(isoquinolin-3-yl)-4-(pyridin-2-yl)thiazol-2-amine], the IC50 was < 200 nM.

For the compound `O=C(c1sc(Nc2cc(C(F)(F)F)ccn2)nc1-c1ccccn1)N1CCC2(CC1)OCCO2` [Example 190, (4-(pyridin-2-yl)-2-(4-(trifluoromethyl)pyridin-2-ylamino)thiazol-5-yl)(1,4-dioxa-8-azaspiro[4.5]decan-8-yl)methanone], the IC50 was in the range of 500 to 5000 nM.

With `O=C(NC1CCCC1)c1sc(Nc2cc(C(F)(F)F)ccn2)nc1-c1ccccn1` [Example 204, N-cyclopentyl-4-(pyridin-2-yl)-2-(4-(trifluoromethyl)pyridin-2-ylamino) thiazole-5-carboxamide], the IC50 fell in the range of 500 to 5000 nM.

Take `CCOc1cccc(-c2csc(Nc3cc(C)ccn3)n2)n1` [Example 78, 4-(6-ethoxypyridin-2-yl)-N-(4-methylpyridin-2-yl)thiazol-2-amine]: the IC50 was in the range of 500 to 5000 nM.

Take `Cc1ccnc(Nc2nc(-c3cc(C)ccn3)cs2)c1` [Example 220, N,4-bis(4-methylpyridin-2-yl)thiazol-2-amine]: the IC50 was < 200 nM.

`O=C(NCCO)c1ccnc(Nc2nc(-c3ccccn3)cs2)c1` [Example 154, N-(2-hydroxyethyl)-2-(4-(pyridin-2-yl)thiazol-2-ylamino) isonicotinamide]: the IC50 fell in the range of 200 to 500 nM.

`Cc1ccnc(Nc2cnc(-c3ncccc3C)s2)c1` [Example 114, 2-(3-methylpyridin-2-yl)-N-(4-methylpyridin-2-yl)thiazol-5-amine]: the IC50 was < 200 nM.

As to `CCOc1cccc(-c2csc(Nc3ncccc3C)n2)n1` [Example 71], the IC50 was 500 to 5000 nM.

For the compound `Cc1ccnc(Nc2nc(-c3cc(-c4ccccc4)ccn3)cs2)c1` [Example 101, N-(4-methylpyridin-2-yl)-4-(4-phenylpyridin-2-yl)thiazol-2-amine], the IC50 is < 200 nM.

Consider `c1ccc(-c2ccc(Nc3nc(-c4ccccn4)cs3)nc2)cc1` [Example 221, N-(5-phenylpyridin-2-yl)-4-(pyridin-2-yl)thiazol-2-amine], for which the IC50 was < 200 nM.

On to `Cc1ccnc(Nc2nc(-c3ccccn3)c(CN3CCCC3)s2)c1` [Example 185, N-(4-methylpyridin-2-yl)-4-(pyridin-2-yl)-5-(pyrrolidin-1-ylmethyl) thiazol-2-amine], for which the IC50 lay in the range of 200 to 500 nM.

Regarding `Cc1cccnc1Nc1nc(-c2ccccn2)cs1` [Example 215, N-(3-methylpyridin-2-yl)-4-(pyridin-2-yl)thiazol-2-amine], the IC50 was < 200 nM.

As for `C[C@@H]1CN(Cc2sc(Nc3cc(C(F)(F)F)ccn3)nc2-c2ccccn2)C[C@H](C)O1` [Example 201, 5-(((2R,6S)-2,6-dimethyl-morpholino)methyl)-4-(pyridin-2-yl)-N-(4-(trifluoromethyl)pyridin-2-yl)thiazol-2-amine], the IC50 was < 200 nM.

`O=C(c1ccnc(Nc2nc(-c3ccccn3)cs2)c1)N1CC(F)(F)C1` [Example 153, (3,3-difluoroazetidin-1-yl)(2-(4-(pyridin-2-yl)thiazol-2-ylamino)pyridin-4-yl)methanone]: the IC50 was < 200 nM.

Consider `c1ccc(-c2csc(Nc3ccc(C4CCCC4)cn3)n2)nc1` [Example 138, N-(5-cyclopentyl-pyridin-2-yl)-4-(pyridin-2-yl)thiazol-2-amine], for which the IC50 is < 200 nM.

For `Cc1ccnc(Nc2csc(-c3ncccc3C)n2)c1` [Example 115, 2-(3-methylpyridin-2-yl)-N-(4-methylpyridin-2-yl)thiazol-4-amine], the IC50 was 500 to 5000 nM.
